Read-outs that look alike come from different tables or passages of the source.
What was measured:
[1] = cited from earlier work
[2] = Myelosuppression and neutropenia studies (blood CBC and differential); assay type: in vivo, ICR mice; conditions: 10 mg/kg i.v., day 3
Description: Myelosuppression and neutropenia studies. […] Empty vesicles were administered as a control. CBC and differential analysis was performed at Central Labs for Veterinarians (Langley, BC) to quantify cellular levels, ratios and morphology.

[3] = system: LX-1 human lung carcinoma; assay: LX-1 human lung carcinoma xenograft (s.c.), efficacy and toxicity; assay type: in vivo, nude mice; conditions: LX-1, single dose; free at evaluated doses <30 mg/kg
From the text: In the above formula, MTD is the maximum tolerated dose, defined as that dose that causes a mean weight loss of 20% in a group of animals; and MED is the minimal effective dose, defined as the dose that produces an optimal % T/C value of ≦40 in the solid tumor models or an % ILS of 50±10% in the survival models.

[4] = Pharmacokinetic and in vivo leakage studies; conditions: plasma, ICR mice; for AUC / Cmax / clearance: mouse, iv
Description: 5. Pharmacokinetic and in vivo leakage studies. […] Two different drug-to-lipid ratios, i.e., 0.10 (w/w) and 0.02 (w/w), were used to examine the influence of drug-to-lipid ratio and lipid dose on drug leakage and PK behavior. Encapsulated topotecan was administered at 1 mg/kg (10 or 50 mg/kg lipid) and 5 mg/kg topotecan (50 mg/kg lipid). […] Total topotecan in blood was determined by a fluorescence assay preceded by precipitation of plasma proteins. Topotecan was quantified by spectrofluorimetry at an excitation (2.5 nm slit width) and emission wavelength (2.5 nm slit width) of 380 and 518 nm, respectively. Lipid levels in plasma were determined by liquid scintillation counting of the [^3H]-CHE label.

[5] = system: MX-1 human breast carcinoma; assay: MX-1 human breast carcinoma xenograft (s.c.), efficacy and toxicity; assay type: in vivo, nude mice
Description: Tumor Models. […] Human MX-1 and LX-1 cell lines were obtained from the DCTD Tumor Repository in Frederick, Md. These cell lines were received as tumor fragments and were propagated in NCr nude mice by serial transplantation of 3×3 mm fragments. Experiments were not initiated until the cell lines had been through 3 passages in nude mice and the tumor lines were restarted when the passage number reached 10.
Efficacy Studies. […] For the MX-1 and LX-1 tumor models, tumor volume was determined by repeated perpendicular measurements of tumor dimensions and using the formula: Volume (mm^3)=(L×W^2)/2

[6] = MX-1 s.c., single i.v. dose 5 mg/kg

CC[C@@]1(O)C(=O)OCc2c1cc1n(c2=O)Cc2cc3c(CN(C)C)c(O)ccc3nc2-1 [Free, 9-dimethylaminomethyl-10-hydroxy-camptothecin]
LD10 ([1]; qdx5 schedule, converted): ~4.7 mg/kg/dose
LD10 ([1]; single intravenous infusion in mice (Hycamtin product monograph)): 75 mg/M^2
LD10 ([1]; single intravenous infusion in mice, converted): ~25 mg/kg
differences in neutrophil, WBC and lymphocyte parameters [2]: No significant differences
anti-tumor activity in initial single dose studies [3]: inactive
AUC ([4]; 1 mg/kg i.v.): 1.97 µg·h/mL
Cmax ([4]; 1 mg/kg i.v.): 0.75 µg/mL
clearance ([4]; 1 mg/kg i.v.): 0.232 mL/min
AUC ([4]; 5 mg/kg i.v.): 2.77 µg·h/mL
Cmax ([4]; 5 mg/kg i.v.): 2.17 µg/mL
clearance ([4]; 5 mg/kg i.v.): 0.827 mL/min
α1/2 ([4]; 1 mg/kg i.v.): 0.14 h
α1/2 ([4]; 5 mg/kg i.v.): 0.26 h
anti-tumor activity ([5]; MX-1, q7dx3, 5 or 10 mg/kg/dose): little activity
% T/C (optimal, following final treatment) ([5]; MX-1 s.c., q7dx3, 10 mg/kg/dose i.v.): 61%
% T/C (optimal, following final treatment) [5, 6]: 78%
T − C (tumor growth delay to 500 mm^3) [5, 6]: 0.2 days
% T/C (optimal, following final treatment) ([5]; MX-1 s.c., single i.v. dose 40 mg/kg): 24%

Source: US20060269594A1, “Liposomal antineoplastic drugs and uses thereof” (Inex Pharmaceuticals Corporation, priority 2000, published 2006)
